This is an account of results in patent US7452865B2, “Antagonistic analogs of GH RH (2003)” (The Administrare's of the Tulane Educational Fund, priority 2004, dated 2008).

Marks after values point to notes of the source that are not given here. Square brackets hold non-standard residues; d marks the D form. Peptide text beside a SMILES is read from it. * marks the point of attachment. Phe(4-amidino) = N=C(N)c1ccc(C[C@H](N)C(=O)O)cc1; Phe(4-Cl) = N[C@@H](Cc1ccc(Cl)cc1)C(=O)O; hArg = N=C(N)NCCCC[C@H](N)C(=O)O; Nle = CCCC[C@H](N)C(=O)O; Abu = CC[C@H](N)C(=O)O; PhAc = O=C(Cc1ccccc1)* Bounds are passed on as bounds.

Test [1] relates to PC-3 human prostate cancer xenografts. Description: PC-3 xenografts in nude mice, Experiment 1: tumor growth. Format: in vivo. On the procedure:
(§1) Male nude mice were implanted s.c. with 3 mm^3 pieces of PC-3 human hormone-independent prostate cancer tissue on both flanks. When tumors reached a volume of approx. 50 mm^3, the mice were divided into 5 experimental groups with 7 to 8 animals in each group and received single daily injections for 28 days as follows: 1. Control (vehicle solution); 2. JV-1-38 (10 μg/day s.c.); 3 Peptide 31 (10 μg/day s.c.); 4. Peptide 67 (10 μg/day s.c.); 5. Peptide 62 (10 μg/day s.c.). Tumor volumes were measured twice a week. The experiment was ended on day 29 by sacrificing the mice under Isoflurane anesthesia. Resulting tumors were cleaned, weighed, and snap-frozen until further analyses. Trunk blood was collected from the abdominal aorta and serum was separated for RIA measurement of IGF-I. Statistical analyses of the measurement results were done by two-tailed t-test; data are presented as the means±S.E.

The test system of test [2] is mRNA for IGF-II. Description: DMS-153 human SCLC xenografts: expression of mRNA for IGF-II. Format: in vivo, nude mice. Particulars: 10 μg/day s.c., 6 weeks, control group 100±1.5%. Here is the method: (§2) Male nude mice were implanted s.c. with 3 mm^3 pieces of DMS-153 human SCLC tissue. When tumors reached a volume of approx. 100 mm^3 the mice were divided into 3 experimental groups of 68 animals each and received the following treatment for 6 weeks group 1 (control), vehicle solution; group 2, Peptide 67 (10 μg/day s.c.); group 3, Peptide 31 (10 μg/day s.c.). Tumor volumes were recorded twice a week. At the end of treatment, mice were anesthetized with isoflurane, killed by decapitation, trunk blood was collected for measurement of serum IGF-I, and tumors were excised and weighed. Data are presented as means±S.E. Data were evaluated by one way ANOVA and the Student-Newman-Keuls test.

The subject of test [3] is hGH-RH(1-29)NH2 induced GH release. The test can be described thus: Inhibition of GH release in superfused rat pituitary system. Format: cell-based. In short, it runs like this:
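Dispersed rat pituitary cells in superfusion were preincubated 9 min with analog at various concentrations, then stimulated with 1 nM hGH-RH(1-29)NH2 for 3 min, repeated at 30, 60, 90, 120 min to gauge duration. GH measured by double-antibody RIA; net integrated responses expressed as percent of the initial 1 nM GH-RH response.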

The test system of test [4] is DMS-153 human SCLC xenografts. Description: DMS-153 human SCLC xenografts in nude mice: tumor growth. Format: in vivo. On the procedure:
as §2

Test [5] concerns IGF-I. The test can be described thus: DMS-153 human SCLC xenografts: serum IGF-I. Format: in vivo, nude mice. Particulars: 10 μg/day s.c., 6 weeks.
Source text: (§3) For the measurement of GH and IGF-I levels in the serum, as well as IGF-I and IGF-II concentrations in the cytosol fraction of tumors, blood samples and tumor samples were collected and processed as described (Braczkowski R, Schally A V, Plonowski A, Varga J L, Groot K, Krupa M, Armatis P, Cancer 95: 1735-1745, 2002), hereby incorporated by reference. Briefly, blood samples are centrifuged to separate the serum, tumors are homogenized and centrifuged to separate the cytosol fraction. Serum GH is then measured by the double-antibody RIA method. Before measurement by RIA, IGF-I and IGF-II are extracted from serum and cytosol fractions using an acid-ethanol cryoprecipitation method that eliminates most of the IGF binding proteins, which can interfere with the RIA. IGF-I concentration is measured by RIA using IGF-I as a standard and goat anti-IGF-I antibody (both from DSL Inc., Webster, Tex.). IGF-II concentration is measured by RIA using human recombinant IGF-II (Bachem) as a standard and anti-IGF-II monoclonal antibody (Amano International Enzyme, Troy, Va.).
as §2

In test [6] the test system is IGF-II. Description: PC-3 xenografts, Experiment 1: tumor IGF-II (RIA). It is filed as in vivo, nude mice. Particulars: 10 μg/day s.c., 28 days.
Source text: as §3, §1

In test [7] the test system is IGF-I. The test can be described thus: PC-3 xenografts, Experiment 1: serum IGF-I (RIA). Particulars: 10 μg/day s.c., 28 days. It is filed as in vivo, nude mice.
Source text: as §3, §1

Test [8] has as its system H-69 human SCLC xenografts. Description: H-69 human SCLC xenografts in nude mice: tumor growth. Format: in vivo. Particulars: H-69. Here is the method:
Male nude mice were implanted s.c. with 3 mm^3 pieces of H-69 human SCLC tissue. When tumors reached a volume of approx. 80 mm^3 the mice were divided into 4 experimental groups of 7-8 animals each and received the following treatment for 4 weeks: group I (control), vehicle solution; group 2, Peptide 67 (10 μg/day s.c.); group 3, Peptide 31 (10 μg/day s.c.); group 4, Peptide 72 (10 μg/day s.c.). Tumor volumes were recorded twice a week. At the end of treatment, mice were anesthetized with isoflurane, killed by decapitation, and tumors were excised and weighed. Data are presented as means±S.E. Data were evaluated by one way ANOVA and the Student-Newman-Keuls test.

For test [9], the system named is pituitary. Particulars: cited from earlier work.
Test [10] has as its system rat anterior pituitary adenylate cyclase. Particulars: cited from earlier work.
Test [11] relates to GH secretion. Particulars: cited from earlier work.
[12] abbreviates: 10 μg/day s.c., 28 days, vs control.
[13] abbreviates: 10 μg/day s.c., 6 weeks, vs control.

`CCCC[C@H](NC(=O)[C@@H](NC(=O)[C@H](CC(=O)O)NC(=O)[C@H](CCC(N)=O)NC(=O)[C@H](CC(C)C)NC(=O)[C@H](CC(C)C)NC(=O)[C@H](CCCCN)NC(=O)[C@H](CCCNC(=N)N)NC(=O)[C@H](C)NC(=O)[C@H](CO)NC(=O)[C@H](CC(C)C)NC(=O)[C@H](CCC(N)=O)NC(=O)[C@H](CC)NC(=O)[C@H](CC(C)C)NC(=O)[C@@H](NC(=O)[C@H](CCCCN)NC(=O)[C@H](CCCNC(=N)N)NC(=O)[C@H](Cc1ccc(C(=N)N)cc1)NC(=O)[C@H](CCCCNC(=N)N)NC(=O)[C@H](CC(N)=O)NC(=O)[C@@H](NC(=O)[C@H](Cc1ccc(Cl)cc1)NC(=O)[C@@H](NC(=O)[C@H](C)NC(=O)[C@H](CC(=O)O)NC(=O)[C@@H](CCCNC(=N)N)NC(=O)[C@H](Cc1ccc(O)cc1)NC(=O)Cc1ccccc1)[C@@H](C)CC)[C@@H](C)O)C(C)C)[C@@H](C)CC)C(=O)N[C@H](CCCNC(=N)N)C(=O)N[C@@H](CCCCNC(=N)N)C(N)=O` [Peptide 31, [PhAc-Tyr^1, D-Arg^2, Phe(pCl)^6, Har^9, Amp^10, Abu^15, Nle^27, D-Arg^28, Har^29]hGH-RH(1-29)NH2] (PhAc-Y[dR]DAI[Phe(4-Cl)]TN[hArg][Phe(4-amidino)]RKVL[Abu]QLSARKLLQDI[Nle][dR][hArg]-NH2): the “Tumor volume (mm^3) Final” value in [1] (10 μg/day s.c., 28 days) is on record as 363 ± 92.8 mm^3; in test [4] (10 μg/day s.c., 6 weeks), 3329 ± 180 mm^3; in test [8] (10 μg/day s.c., 4 weeks) it was 832 ± 23* mm^3. The “Tumor volume doubling time” value in [1] (10 μg/day s.c., 28 days) is 14.0 ± 2.69 days. Further, the “Tumor weight” value in test [1] (10 μg/day s.c., 28 days) is given as 237 ± 53.3 mg; in test [4] (10 μg/day s.c., 6 weeks), 1.58 ± 0.11 g. For the same compound, the “Tumor volume Final (% inhibition)” value in test [1] (setting [12]) was “(28%)”; in test [4] (setting [13]) it was “(10%)”; in test [8] (10 μg/day s.c., 4 weeks, vs control), “(67%)”. Besides, the “Tumor weight (% inhibition)” value in [1] (setting [12]) is listed as “(37%)”; in test [4] (setting [13]), “(32%)”. Further, the results for the “Tumor volume (mm^3) Initial” value in test [1] (at start of treatment), in test [4] (at start of treatment) and in test [8] (at start of treatment) were 49.1 ± 12.5 mm^3, 138 ± 20 mm^3 and 80 ± 6 mm^3, respectively. Moreover, the “level of expression of mRNA for IGF-II” value in [2] is given as 42.7±18.5%. The “GH response (% of control) 0 min” value is reported as 57 % of control in [3] (antagonist 10 nM, 0 min) and 7 % of control in [3] (antagonist 30 nM, 1 nM hGH-RH(1-29)NH2 at 0 min). The “GH response (% of control) 30 min” value in [3] (antagonist 10 nM, 30 min) is reported as 31 % of control; in test [3] (antagonist 30 nM, 1 nM hGH-RH(1-29)NH2 at 30 min), 1 % of control. Also, the “GH response (% of control) 60 min” value was 37 % of control in test [3] (antagonist 10 nM, 60 min) and 2 % of control in [3] (antagonist 30 nM, 1 nM hGH-RH(1-29)NH2 at 60 min). For the same compound, the “GH response (% of control) 90 min” value is recorded as 36 % of control in [3] (antagonist 10 nM, 90 min) and 4 % of control in test [3] (antagonist 30 nM, 1 nM hGH-RH(1-29)NH2 at 90 min). The “GH response (% of control) 120 min” value in test [3] (antagonist 10 nM, 120 min) is recorded as 37 % of control; in test [3] (antagonist 30 nM, 1 nM hGH-RH(1-29)NH2 at 120 min), 3 % of control. For the same compound, in [3] (general statement, in vitro and in vivo), the “endocrine antagonistic potency: inhibition of the GH release stimulated by hGH-RH(1-29)NH2 (in words)” value is listed as “high endocrine antagonistic potencies”. The “Serum IGF-I” value in test [5] came out at 118.4 ± 12.5 ng/mL; in test [7] it was 133 ± 16.7 ng/mL. In addition, the “Serum IGF-I (% inhibition)” value in test [5] (vs control) was “(30%)”; in [7] (vs control) it was “(11%)”. In addition, the “Tumor IGF-II (pg/mg protein)” value in test [6] was 130 ± 56.0 pg/mg protein. For the same compound, the “Tumor IGF-II (% inhibition)” value in [6] (vs control) is on record as “(41%)”.
Turning to “Tyr-Ala-Asp-Ala-Ile^5-Phe-Thr-Asn-Ser-Tyr^10-Arg-Lys-Val-Leu-Gly^15-Gln-Leu-Ser-Ala-Arg^20-Lys-Leu-Leu-Gln-Asp^25-Ile-Met-Ser-Arg^29-NH2 [GH-RH(1-29)]”, the “potency retained relative to native GH-RH” value in [9] was not below 50%.
On to “[Ac-Tyr^1, D-Arg^2]hGH-RH(1-29)NH2 [Standard antagonist, reference compound]”, for which the “GH response (% of control) 0 min” value in test [3] (antagonist 100 nM, 0 min) is recorded as 38 % of control. The “GH response (% of control) 30 min” value in [3] (antagonist 100 nM, 30 min) is on record as 98 % of control. For the same compound, in test [3] (antagonist 100 nM, 60 min), the “GH response (% of control) 60 min” value is 81 % of control. Besides, in test [10], the “activation of rat anterior pituitary adenylate cyclase by hGH-RH(1-29)NH2” value is listed as “prevent the activation”. Besides, in test [11] (400 μg/kg, normal subjects), the “nocturnal GH secretion” value is recorded as “eliminated nocturnal GH secretion”. In addition, the GH levels result in test [11] (a patient with acromegaly) was “reduced GH levels”.
